Measurements from US20230322785A1, “ADENOSINE A2A AND A2B RECEPTOR DUAL ANTAGONISTS FOR IMMUNO-ONCOLOGY” (Merck Sharp & Dohme LLC, priority 2020, published 2023).

Key:
[1] = biological target: T1, human A2A adenosine receptor (Homo sapiens, UniProt P29274); assay: A2A binding affinity, Method (A): radioligand filtration binding with [3H]SCH58261; details: membranes of HEK293 or CHO cells expressing the human receptor
T1 construct: expressed in transfected cells; host or cells: HEK293 or CHO cells
T1 sequence (P29274 whole entry): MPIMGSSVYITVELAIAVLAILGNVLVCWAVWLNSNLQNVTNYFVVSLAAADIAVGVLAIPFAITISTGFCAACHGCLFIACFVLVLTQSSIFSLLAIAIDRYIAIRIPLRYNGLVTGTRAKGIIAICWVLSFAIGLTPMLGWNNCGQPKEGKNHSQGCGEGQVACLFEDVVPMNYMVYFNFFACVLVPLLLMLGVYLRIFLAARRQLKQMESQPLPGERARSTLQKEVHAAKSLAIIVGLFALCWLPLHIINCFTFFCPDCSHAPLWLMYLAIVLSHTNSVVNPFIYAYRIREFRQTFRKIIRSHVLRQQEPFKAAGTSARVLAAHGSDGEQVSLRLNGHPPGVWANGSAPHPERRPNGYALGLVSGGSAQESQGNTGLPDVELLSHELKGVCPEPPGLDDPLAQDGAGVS
From the text: (§1) Method (A) describes the procedure used to measure A2A binding affinity using radioligand binding. Method (B) describes the procedure used to measure A2A binding affinity using SPA technology. The method used to measure A2B binding affinity is also described below. The method used to determine the A2A IC50 value reported for each compound in the table is indicated next to the reported value. The A2B IC50 value measured using the A2B binding affinity assay is shown in the table next to the compound under the corresponding A2A value.
The A2A receptor affinity binding assay measured the amount of binding of a tritiated ligand with high affinity for the A2A adenosine receptor to membranes made from HEK293 or CHO cells recombinantly expressing the human A2A adenosine receptor, in the presence of varying concentrations of a compound of the invention. The data were generated using either filtration binding or a homogenous scintillation proximity assay (SPA).
Method (A): Measurement of A2A Binding Affinity Using Radioligand Binding
148 µL (5 µg/mL) membranes (Perkin Elmer, Cat. No. RBHA2aM400UA) and 2 µL compounds of the invention to be tested (test compound) were transferred to individual wells of a 96-well polypropylene assay plate and incubated for 15 to 30 min at room temperature. [^3H] SCH58261 ((7-(2-phenylethyl)-5-amino-2-(2-furyl)-pyrazolo-[4,3-e]-1,2,4-triazolo[1,5-c]pyrimidine)) was diluted in assay buffer (50 mM Tris pH 7.4, 10 mM MgCl2, 0.005% Tween20) to a concentration of 4 nM and 50 µL transferred to each well of the assay plate. To define total and non-specific binding, wells containing 1% DMSO and 1 µM ZM241385 (Tocris Bioscience, Cat. No. 1036) respectively, were also included. The assay plate was incubated at room temperature for 60 min with agitation. Using a FilterMate Harvester® (Perkin Elmer), the contents of the assay plate were filtered through a UniFilter-96® PEI coated plate (Perkin Elmer Cat. No. 6005274 or 6005277). Filtering was achieved by aspirating the contents of the assay plate for 5 sec, then washing and aspirating the contents three times with ice-cooled wash buffer (50 mM Tris-HCl pH 7.4, 150 mM NaCl) and allowing the vacuum manifold to dry the plate for 30 sec. The filter plate was incubated for at least 1 h at 55° C. and allowed to dry. The bottom of the filter plate was sealed with backing tape. 40 µL Ultima Gold™ (Perkin Elmer, Cat. No. 6013329) was added to each well of the filter plate and the top of the plate was sealed with TopSeal-A PLUS® clear plate seal (Perkin Elmer, Cat. No. 6050185). The plate was incubated for at least 20 min, and then the amount of radioactivity remaining in each well was determined using a TopCount® (Perkin Elmer) scintillation counter. After normalization to total and non-specific binding, the percent effect at each compound concentration was calculated. The plot of percent effect versus the log of compound concentration was analyzed electronically using a 4-parameter logistic fit based on the Levenberg-Marquardt algorithm to generate IC50 values.

[2] = biological target: T2, human A2B adenosine receptor (Homo sapiens, UniProt P29275); assay: A2B binding affinity, radioligand filtration binding assay; details: value given with mark (A); membranes of HEK293 cells expressing human A2B
T2 construct: purchased Perkin Elmer ES-013-C; host or cells: HEK293 cells
T2 sequence (P29275 1-332): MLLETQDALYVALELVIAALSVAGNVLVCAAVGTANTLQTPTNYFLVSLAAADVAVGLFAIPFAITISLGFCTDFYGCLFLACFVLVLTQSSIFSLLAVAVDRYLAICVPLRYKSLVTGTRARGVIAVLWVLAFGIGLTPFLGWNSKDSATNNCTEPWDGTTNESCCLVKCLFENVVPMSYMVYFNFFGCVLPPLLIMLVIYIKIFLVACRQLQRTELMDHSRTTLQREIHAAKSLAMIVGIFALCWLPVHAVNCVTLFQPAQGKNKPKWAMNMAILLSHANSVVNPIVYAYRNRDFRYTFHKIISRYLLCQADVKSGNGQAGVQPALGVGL
From the text: as §1
Measurement of A2B Binding Affinity
The reported affinity of the compounds of the invention for the human A2B adenosine receptor was determined experimentally using a radioligand filtration binding assay. This assay measures the amount of binding of a tritiated proprietary A2B receptor antagonist, in the presence and absence of a compound of the invention, to membranes made from HEK293 cells recombinantly expressing the human A2B adenosine receptor (Perkin Elmer, Cat. No. ES-013-C). […] 148 µL (135 µg/mL) membranes and 2 µL test compounds were transferred to individual wells of a 96-well polypropylene assay plate and incubated for 15 to 30 min at room temperature with agitation. Tritiated radioligand was diluted to a concentration of 14 nM in assay buffer (phosphate buffered saline without Magnesium and Calcium, pH 7.4; GE Healthcare Life Sciences, Cat. No. SH30256.01) and then 50 µL of the solution were transferred to each well of the assay plate. To define total and non-specific binding, wells containing 1% DMSO and 20 µM N-ethylcarboxamidoadenosine (Tocris Bioscience, Cat. No. 1691) respectively, were also included. The wells of the assay plate were incubated at room temperature for 60 min with agitation, then filtered using a FilterMate Harvester® (Perkin Elmer) or similar equipment through a UniFilter-96® PEI coated plate (Perkin Elmer Cat. No. 6005274 or 6005277). Filtering was achieved by aspirating the contents of the assay plate for 5 sec, then washing and aspirating the contents three times with ice-cooled wash buffer (assay buffer supplemented with 0.0025% Brij58) and allowing the vacuum manifold to dry the plate for 30 sec. The filter plate was incubated for at least 1 h at 55° C. and allowed to dry. The bottom of the filter plate was then sealed with backing tape. 40 µL Ultima Gold™ (Perkin Elmer, Cat. No. 6013329) was added to each well of the filter plate and the top of the plate was sealed with TopSeal-A PLUS® clear plate seal (Perkin Elmer, Cat. No. 6050185). The plates were then incubated for at least 20 min, and then the amount of radioactivity remaining in each well was determined using a TopCount® (Perkin Elmer) scintillation counter. After normalization to total and non-specific binding, the percent effect at each compound concentration was calculated. The plot of percent effect versus the log of compound concentration was analyzed electronically using a 4-parameter logistic fit based on the Levenberg-Marquardt algorithm to generate IC50 values.

SMILES	IC50 [1]	IC50 [2]
COc1cccc2c1nc(N)n1nc(CNS(=O)(=O)C3CC3)nc21 [Example 12.2, N-((5-amino-7-methoxy-[1,2,4]triazolo[1,5-c]quinazolin-2-yl)methyl)cyclopropanesulfonamide]	0.6 nM	116 nM
COc1cc(F)cc2c1nc(N)n1nc(CNCc3ccc(C(O)(C(F)F)C(F)F)cc3)nc21 [Example 11.6, 2-(4-((((5-amino-9-fluoro-7-methoxy-[1,2,4]triazolo[1,5-c]quinazolin-2-yl)methyl)amino)methyl)phenyl)-1,1,3,3-tetrafluoropropan-2-ol]	0.3 nM	3.7 nM
COc1cc(F)cc2c1nc(N)n1nc(CNCc3ccc(C(O)C(F)(F)F)cc3)nc21 (single isomer, unassigned) [Example 11.7B, (R or S)-1-(4-((((5-amino-9-fluoro-7-methoxy-[1,2,4]triazolo[1,5-c]quinazolin-2-yl)methyl)amino)methyl)phenyl)-2,2,2-trifluoroethan-1-ol]	0.5 nM	14.7 nM
COc1cc(F)cc2c1nc(N)n1nc(CNCc3ccc(C(O)(C(F)(F)F)C(F)(F)F)cc3)nc21 [Example 11.5, 2-(4-((((5-amino-9-fluoro-7-methoxy-[1,2,4]triazolo[1,5-c]quinazolin-2-yl)methyl)amino)methyl)phenyl)-1,1,1,3,3,3-hexafluoropropan-2-ol]	0.2 nM	1 nM
COc1cccc2c1nc(N)n1nc(CNC3CCc4c(nnn4C4CC(F)(F)C4)C3)nc21 (single isomer, unassigned) [Example 11.2A, (S or R)-2-(((1-(3,3-difluorocyclobutyl)-4,5,6,7-tetrahydro-1H-benzo[d][1,2,3]triazol-5-yl)amino)methyl)-7-methoxy-[1,2,4]triazolo[1,5-c]quinazolin-5-amine]	0.6 nM	–
COc1cccc2c1nc(N)n1nc(CNC(=O)c3c(C)cc(C(C)(C)O)cc3C)nc21 [Entry 1.3]	10.2 nM	–
COc1cccc2c1nc(N)n1nc(CN3CC(n4cccn4)C3)nc21 [Example 11.12, 2-((3-(1H-pyrazol-1-yl)azetidin-1-yl)methyl)-7-methoxy-[1,2,4]triazolo[1,5-c]quinazolin-5-amine]	3.7 nM	–
COc1cccc2c1nc(N)n1nc(CNC(=O)c3ccc(C(O)(C(F)(F)F)C(F)(F)F)cc3)nc21 [Example 2.6, N-((5-amino-7-methoxy-[1,2,4]triazolo[1,5-c]quinazolin-2-yl)methyl)-4-(1,1,1,3,3,3-hexafluoro-2-hydroxypropan-2-yl)benzamide]	0.3 nM	–
COc1cccc2c1nc(N)n1nc(CCNC34CC(C(C)(C)O)(C3)C4)nc21 [Example 22.2, 2-(3-((2-(5-amino-7-methoxy-[1,2,4]triazolo[1,5-c]quinazolin-2-yl)ethyl)amino)bicyclo[1.1.1]pentan-1-yl)propan-2-ol]	12.3 nM	–
COc1cccc2c1nc(N)n1nc(CNCc3ccc(S(N)(=O)=O)cc3)nc21 [Example 11.10, 4-((((5-amino-7-methoxy-[1,2,4]triazolo[1,5-c]quinazolin-2-yl)methyl)amino)methyl)benzenesulfonamide]	1.4 nM	–
COc1cccc2c1nc(N)n1nc(CN(C)C(=O)c3ccc(C(C)(C)O)cc3)nc21 [Example 1.2, N-((5-amino-7-methoxy-[1,2,4]triazolo[1,5-c]quinazolin-2-yl)methyl)-4-(2-hydroxypropan-2-yl)-N-methylbenzamide]	0.3 nM	–
COc1cccc2c1nc(N)n1nc(CNC(=O)c3ncc(C(C)(C)O)cc3Br)nc21 [Example 4.11, N-((5-amino-7-methoxy-[1,2,4]triazolo[1,5-c]quinazolin-2-yl)methyl)-3-bromo-5-(2-hydroxypropan-2-yl)picolinamide]	1.5 nM	–
COc1cc(F)cc2c1nc(N)n1nc(CNCc3ccc(C(O)C(F)(F)F)cc3)nc21 (single isomer, unassigned) [Example 11.7A, (S or R)-1-(4-((((5-amino-9-fluoro-7-methoxy-[1,2,4]triazolo[1,5-c]quinazolin-2-yl)methyl)amino)methyl)phenyl)-2,2,2-trifluoroethan-1-ol]	0.5 nM	21.2 nM
COc1cc(F)cc2c1nc(N)n1nc(CNC(=O)c3ccc(C(C)(C)O)cc3Cl)nc21 [Entry 3.5]	2.5 nM	–
COc1cccc2c1nc(N)n1nc(CNC3CCc4c(nnn4C4CC(F)(F)C4)C3)nc21 (single isomer, unassigned) [Example 11.2B, (R or S)-2-(((1-(3,3-difluorocyclobutyl)-4,5,6,7-tetrahydro-1H-benzo[d][1,2,3]triazol-5-yl)amino)methyl)-7-methoxy-[1,2,4]triazolo[1,5-c]quinazolin-5-amine]	3.4 nM	–
COc1cc2nc(N)n3nc(CCNc4cnn(CC(C)(C)O)c4)nc3c2cc1F [Example 24.2, 1-(4-((2-(5-amino-9-fluoro-8-methoxy-[1,2,4]triazolo[1,5-c]quinazolin-2-yl)ethyl)amino)-1H-pyrazol-1-yl)-2-methylpropan-2-ol]	26.5 nM	–
COc1cccc2c1nc(N)n1nc(CN3CCO[C@@H](Cc4ccccc4)C3)nc21 [Example 8.1, (S)-2-((2-benzylmorpholino)methyl)-7-methoxy-[1,2,4]triazolo[1,5-c]quinazolin-5-amine]	6 nM	–
COc1cc(F)cc2c1nc(N)n1nc(CNC(c3ccc(C(C)(C)O)cc3)C(F)(F)F)nc21 (single isomer, unassigned) [Example 25.3A, (S or R)-2-(4-(1-(((5-amino-9-fluoro-7-methoxy-[1,2,4]triazolo[1,5-c]quinazolin-2-yl)methyl)amino)-2,2,2-trifluoroethyl)phenyl)propan-2-ol]	19.3 nM	–
